Our source for the IC50 values is patent US11046658B2, “Aminopyrazine derivatives as PI3K-γ inhibitors” (Incyte Corporation, priority 2018, dated 2021).

Assay [1] concerns the target PI3Kδ (p110δ/p85α) Recombinant Human Protein (Homo sapiens (Human), UniProt O00329). As to the kind of experiment: PI3Kδ Scintillation Proximity Assay. The format is biochemical. The settings on record: 2 μM ATP, 20 μM PIP2. An excerpt: Materials: [γ-^33P]ATP (10 mCi/mL) and Wheat Germ Agglutinin (WGA) YSi SPA Scintillation Beads was purchased from Perkin Elmer (Waltham, Mass.). Lipid kinase substrate, D-myo-Phosphatidylinositol 4,5-bisphosphate (PtdIns(4,5)P2)D (+)-sn-1,2-di-O-octanoylglyceryl, 3-O-phospho linked (PIP2), CAS 204858-53-7, was purchased from Echelon Biosciences (Salt Lake City, Utah). PI3Kδ (p110δ/p85α) Recombinant Human Protein was purchased from Eurofins (St Charles, Mo.). ATP, MgCl2, DTT, EDTA, MOPS and CHAPS were purchased from Sigma Aldrich (St. Louis, Mo.).
The kinase reaction was conducted in polystyrene 384-well Greiner Bio-one white plate from Thermo Fisher Scientific in a final volume of 25 μL. Inhibitors were first diluted serially in DMSO and added to the plate wells before the addition of other reaction components. The final concentration of DMSO in the assay was 2%. The PI3Kδ assay was carried out at room temperature in 20 mM MOPS, pH 6.7, 10 mM MgCl2, 5 mM DTT and CHAPS 0.03%. Reactions were initiated by the addition of ATP, the final reaction mixture consisted of 20 μM PIP2, 2 μM ATP, 0.5 μCi [γ-^33P] ATP, 3.4 nM PI3Kδ. Reactions were incubated for 120 min and terminated by the addition of 40 μL SPA beads suspended in quench buffer: 163 mM potassium phosphate pH 7.8, 20% glycerol, 25 mM EDTA. The final concentration of SPA beads is 1.0 mg/mL. After the plate sealing, plates were shaken overnight at room temperature and centrifuged at 1500 rpm for 10 min, the radioactivity of the product was determined by scintillation counting on Topcount (PerkinElmer). IC50 determination was performed by fitting the curve of percent of the solvent control activity versus the log of the inhibitor concentration using the GraphPad Prism 6.0 software.
A general note: SPA uses beads or plates that emit light when radiolabelled molecules are held near them.

Assay [2] has as its system Phosphorylated Ribosomal Protein S6 (RPS6) in THP-1 cells. The experiment in a line: THP-1 RPS6 ELISA Assay. In kind it is cell-based, Human. To be noted: Homo sapiens. In outline:
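Cells serum-starved overnight, pre-incubated with compounds 2 h at 37° C, then stimulated with 10 nM MCP-1 for 15 min. Lysates assayed for phospho-RPS6 by ELISA read at 450 nm. IC50 from percent inhibition vs log concentration curve fit.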

Where [3] appears, read: Table A1, THP-1 cells, 10 nM MCP-1, read-out: PI3Kγ_THP1_RPS6_ELISA IC50.
The mark [4] stands for this setting: Table A3, THP-1 cells, 10 nM MCP-1, read-out: PI3Kγ_THP1_RPS6_ELISA IC50.
The mark [5] stands for this setting: Table A4, THP-1 cells, 10 nM MCP-1, cells given with + symbol, read-out: PI3Kγ_THP1_RPS6_ELISA IC50.
Where [6] appears, read: THP-1, read-out: PI3Kγ_THP1_RPS6_ELISA IC50 (nM).

Where a name gives a salt, the structure may show the parent alone. Read-outs that look alike come from different tables or passages of the source.

Chain of PI3Kδ (p110δ/p85α) Recombinant Human Protein (O00329 whole entry): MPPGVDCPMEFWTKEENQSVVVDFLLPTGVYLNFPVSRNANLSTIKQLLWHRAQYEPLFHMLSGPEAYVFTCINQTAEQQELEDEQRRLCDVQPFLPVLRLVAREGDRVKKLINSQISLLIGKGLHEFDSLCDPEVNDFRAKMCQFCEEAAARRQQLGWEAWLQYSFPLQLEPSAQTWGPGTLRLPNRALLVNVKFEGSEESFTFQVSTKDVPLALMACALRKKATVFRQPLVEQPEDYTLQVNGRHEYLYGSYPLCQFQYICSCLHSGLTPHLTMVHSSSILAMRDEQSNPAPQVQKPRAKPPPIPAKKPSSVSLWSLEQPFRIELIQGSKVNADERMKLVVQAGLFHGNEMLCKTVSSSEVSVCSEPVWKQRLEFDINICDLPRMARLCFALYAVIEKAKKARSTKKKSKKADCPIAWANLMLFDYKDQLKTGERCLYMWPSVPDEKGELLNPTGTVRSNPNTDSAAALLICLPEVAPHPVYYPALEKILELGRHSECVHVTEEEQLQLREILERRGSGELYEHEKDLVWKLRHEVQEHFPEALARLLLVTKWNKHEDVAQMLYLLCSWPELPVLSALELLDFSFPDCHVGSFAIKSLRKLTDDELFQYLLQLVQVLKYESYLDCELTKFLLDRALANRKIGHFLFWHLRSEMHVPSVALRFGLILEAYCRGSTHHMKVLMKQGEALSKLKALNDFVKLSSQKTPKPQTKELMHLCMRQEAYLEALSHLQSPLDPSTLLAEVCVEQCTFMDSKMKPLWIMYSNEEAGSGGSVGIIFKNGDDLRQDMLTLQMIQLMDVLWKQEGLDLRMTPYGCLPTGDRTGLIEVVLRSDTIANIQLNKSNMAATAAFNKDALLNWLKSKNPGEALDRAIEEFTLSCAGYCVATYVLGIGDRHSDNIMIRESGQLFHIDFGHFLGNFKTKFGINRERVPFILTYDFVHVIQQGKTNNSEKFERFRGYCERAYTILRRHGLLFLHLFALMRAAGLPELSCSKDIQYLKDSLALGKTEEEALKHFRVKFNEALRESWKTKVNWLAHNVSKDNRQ
Chain of PI3Kδ (p110δ/p85α) Recombinant Human Protein (P27986 whole entry partner): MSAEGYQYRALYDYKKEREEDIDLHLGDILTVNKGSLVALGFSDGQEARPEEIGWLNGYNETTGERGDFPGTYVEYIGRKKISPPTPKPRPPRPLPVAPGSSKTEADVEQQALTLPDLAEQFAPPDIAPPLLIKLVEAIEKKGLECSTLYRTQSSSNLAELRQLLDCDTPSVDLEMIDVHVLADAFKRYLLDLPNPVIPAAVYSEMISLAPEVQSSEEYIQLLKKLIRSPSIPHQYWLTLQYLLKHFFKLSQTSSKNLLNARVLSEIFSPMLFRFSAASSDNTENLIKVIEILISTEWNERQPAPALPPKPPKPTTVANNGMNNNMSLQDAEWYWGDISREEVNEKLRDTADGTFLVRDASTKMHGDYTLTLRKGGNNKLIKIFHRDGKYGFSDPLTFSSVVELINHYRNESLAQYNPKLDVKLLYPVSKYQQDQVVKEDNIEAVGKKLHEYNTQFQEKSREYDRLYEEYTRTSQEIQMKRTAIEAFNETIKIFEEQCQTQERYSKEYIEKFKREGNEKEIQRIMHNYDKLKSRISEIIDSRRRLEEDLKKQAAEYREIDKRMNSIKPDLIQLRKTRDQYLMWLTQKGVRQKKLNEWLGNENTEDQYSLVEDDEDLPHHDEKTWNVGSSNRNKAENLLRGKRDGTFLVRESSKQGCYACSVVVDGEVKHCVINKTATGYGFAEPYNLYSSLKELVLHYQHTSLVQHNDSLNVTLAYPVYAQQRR

In the case of `Cc1ccc(C(O)(C(N)=O)C(F)(F)F)cc1-c1cnc(N)c(C(=O)N2CCc3cccnc32)n1` (stereo not shown) [Example 28, 2-(3-(5-amino-6-(2,3-dihydro-1H-pyrrolo[2,3-b]pyridine-1-carbonyl)pyrazin-2-yl)-4-methylphenyl)-3,3,3-trifluoro-2-hydroxypropanamide], the figures for the half-inhibitory concentration (IC50) in assay [1] (Table A1) and in assay [2] (setting [3]) were below 500 nM and below 100 nM, respectively.

On to `Cc1ccc(C(O)(CNC(=O)C(C)(C)O)C(F)(F)F)cc1-c1cnc(N)c(C(=O)NC(C)C)n1` (stereo not shown) [Example 41, 3-Amino-N-isopropyl-6-(2-methyl-5-(1,1,1-trifluoro-2-hydroxy-3-(2-hydroxy-2-methylpropanamido)propan-2-yl)phenyl)pyrazine-2-carboxamide trifluoroacetate], for which the 50% inhibitory concentration (IC50) was below 500 nM in assay [1] (Table A1) and above 1000 nM in assay [2] (setting [3]).

Take `C/C=C\c1nc(-c2cc(C(O)(C(N)=O)C(F)(F)F)ccc2C)cnc1N` (stereo not shown) [Example 44, (Z)-2-(3-(5-amino-6-(prop-1-en-1-yl)pyrazin-2-yl)-4-methylphenyl)-3,3,3-trifluoro-2-hydroxypropanamide]: the IC50 in assay [1] (Table A2) is below 500 nM.

Turning to `CCCc1nc(-c2cc(C(O)(C(N)=O)C(F)(F)F)ccc2C)cnc1N` (stereo not shown) [Example 45, 2-(3-(5-amino-6-propylpyrazin-2-yl)-4-methylphenyl)-3,3,3-trifluoro-2-hydroxypropanamide], the 50% inhibitory concentration (IC50) in assay [1] (Table A2) was below 500 nM; in assay [2] (Table A2, THP-1 cells, 10 nM MCP-1, read-out: PI3Kγ_THP1_RPS6_ELISA IC50), below 500 nM.

Take `Cc1ccc(C(O)(C(N)=O)C(F)(F)F)cc1-c1cnc(N)c(C(F)(F)F)n1` (stereo not shown) [Example 46, 2-(3-(5-Amino-6-(trifluoromethyl)pyrazin-2-yl)-4-methylphenyl)-3,3,3-trifluoro-2-hydroxypropanamide trifluoroacetate]: the IC50 in assay [1] (Table A2) was below 500 nM.

`CNC(=O)c1ccc(-c2nc(-c3cc(C(O)(C(N)=O)C(F)(F)F)ccc3C)cnc2N)cn1` (stereo not shown) [Example 80, 5-(3-amino-6-(5-(3-amino-1,1,1-trifluoro-2-hydroxy-3-oxopropan-2-yl)-2-methylphenyl)pyrazin-2-yl)-N-methylpicolinamide bistrifluoroacetate]: the half-inhibitory concentration (IC50) in assay [1] (Table A3) was below 500 nM; in assay [2] (setting [4]), below 1000 nM.

Take `Cc1ccc(C(O)(C(N)=O)C(F)(F)F)cc1-c1cnc(N)c(-c2cncnc2)n1` (stereo not shown) [Example 81, 2-(3-(5-amino-6-(pyrimidin-5-yl)pyrazin-2-yl)-4-methylphenyl)-3,3,3-trifluoro-2-hydroxypropanamide trifluoroacetate]: the IC50 in assay [1] (Table A3) and in assay [2] (setting [4]) was below 500 nM in each case.

`Cc1ccc(C(O)(C(N)=O)C(F)(F)F)cc1-c1cnc(N)c(-c2cccc(C(C)C)c2)n1` (stereo not shown) [Example 90, 2-(3-(5-amino-6-(3-isopropylphenyl)pyrazin-2-yl)-4-methylphenyl)-3,3,3-trifluoro-2-hydroxypropanamide trifluoroacetate]: the IC50 in assay [1] (Table A3) and in assay [2] (setting [4]) was below 500 nM in each case.

For `Cc1ccc(C(O)(C(N)=O)C(F)(F)F)cc1-c1cnc(N)c(-c2ccc(C3CC3)cc2)n1` (stereo not shown) [Example 92, 2-(3-(5-amino-6-(4-cyclopropylphenyl)pyrazin-2-yl)-4-methylphenyl)-3,3,3-trifluoro-2-hydroxypropanamide trifluoroacetate], the half-maximal inhibitory concentration (IC50) in assay [1] (Table A3) and in assay [2] (setting [4]) was below 500 nM throughout.

`CNC(=O)C(O)(c1ccc(C)c(-c2cnc(N)c(-c3cnn(C)c3)n2)c1)C(F)(F)F` (stereo not shown) [Example 96, 2-(3-(5-Amino-6-(1-methyl-1H-pyrazol-4-yl)pyrazin-2-yl)-4-methylphenyl)-3,3,3-trifluoro-2-hydroxy-N-methylpropanamide]: the IC50 is below 500 nM in assay [1] (Table A3) and below 100 nM in assay [2] (setting [4]).

As to `Cc1ccc(C(O)(CNC=O)C(F)(F)F)cc1-c1cnc(N)c(-c2cn[nH]c2)n1` (stereo not shown) [Example 103, N-(2-(3-(5-amino-6-(1H-pyrazol-4-yl)pyrazin-2-yl)-4-methylphenyl)-3,3,3-trifluoro-2-hydroxypropyl)formamide trifluoroacetate], the half-inhibitory concentration (IC50) in assay [1] (Table A3) and in assay [2] (setting [4]) was below 500 nM each time.

For `Cc1ccc(C(O)(C(N)=O)C(F)(F)F)cc1-c1cnc(N)c(C(=O)Nc2ccnn2C)n1` (stereo not shown) [Example 106, 3-amino-6-(5-(3-amino-1,1,1-trifluoro-2-hydroxy-3-oxopropan-2-yl)-2-methylphenyl)-N-(1-methyl-1H-pyrazol-5-yl)pyrazine-2-carboxamide trifluoroacetate], the IC50 in assay [2] (setting [4]) was below 100 nM.

`CC(=O)N1CCN(c2nc(-c3cc(C(O)(C(N)=O)C(F)(F)F)ccc3C)cnc2N)CC1` (stereo not shown) [Example 114, 2-(3-(6-(4-acetylpiperazin-1-yl)-5-aminopyrazin-2-yl)-4-methylphenyl)-3,3,3-trifluoro-2-hydroxypropanamide trifluoroacetate]: in assay [2] (setting [5]), the IC50 was below 100 nM.

For `Cc1ccc([C@@](O)(C(N)=O)C(F)(F)F)cc1-c1cnc(N)c(N2CCN(C(=O)C3CC3)CC2)n1` [Example 115, (R)-2-(3-(5-amino-6-(4-(cyclopropanecarbonyl)piperazin-1-yl)pyrazin-2-yl)-4-methylphenyl)-3,3,3-trifluoro-2-hydroxypropanamide trifluoroacetate], the 50% inhibitory concentration (IC50) in assay [2] (setting [5]) is below 100 nM.

For the compound `Cc1ccc(C(O)(C(N)=O)C(F)(F)F)cc1-c1cnc(N)c(N2CCN(c3ccccn3)CC2)n1` (stereo not shown) [Example 117, 2-(3-(5-amino-6-(4-(pyridin-2-yl)piperazin-1-yl)pyrazin-2-yl)-4-methylphenyl)-3,3,3-trifluoro-2-hydroxypropanamide trifluoroacetate], the half-inhibitory concentration (IC50) in assay [2] (setting [6]) is below 100 nM.

Regarding `Cc1ccc(C(O)(C(N)=O)C(F)(F)F)cc1-c1cnc(N)c(N2CCN(c3cncs3)CC2)n1` (stereo not shown) [Example 120, 2-(3-(5-amino-6-(4-(thiazol-5-yl)piperazin-1-yl)pyrazin-2-yl)-4-methylphenyl)-3,3,3-trifluoro-2-hydroxypropanamide trifluoroacetate], the 50% inhibitory concentration (IC50) in assay [2] (setting [5]) was below 100 nM.

For the compound `Cc1ccc(C(O)(C(N)=O)C(F)(F)F)cc1-c1cnc(N)c(N2CCN(c3ccccc3C#N)CC2)n1` (stereo not shown) [Example 122, 2-(3-(5-amino-6-(4-(2-cyanophenyl)piperazin-1-yl)pyrazin-2-yl)-4-methylphenyl)-3,3,3-trifluoro-2-hydroxypropanamide trifluoroacetate], the concentration for half-maximal inhibition (IC50) in assay [2] (setting [5]) was below 100 nM.

Consider `Cc1ccc(C(O)(C(N)=O)C(F)(F)F)cc1-c1cnc(N)c(N2CCN(c3ccc(C#N)cc3)CC2)n1` (stereo not shown) [Example 123, 2-(3-(5-amino-6-(4-(4-cyanophenyl)piperazin-1-yl)pyrazin-2-yl)-4-methylphenyl)-3,3,3-trifluoro-2-hydroxypropanamide trifluoroacetate], for which, in assay [2] (Table A4, THP-1 cells, 10 nM MCP-1, read-out: PI3Kγ_THP1_RPS6_ELISA IC50), the IC50 is below 500 nM.

As for `Cc1ccc(C(O)(C(N)=O)C(F)(F)F)cc1-c1cnc(N)c(N2CCN(CCC#N)CC2)n1` (stereo not shown) [Example 125, 2-(3-(5-amino-6-(4-(2-cyanoethyl)piperazin-1-yl)pyrazin-2-yl)-4-methylphenyl)-3,3,3-trifluoro-2-hydroxypropanamide trifluoroacetate], the 50% inhibitory concentration (IC50) in assay [2] (setting [6]) was below 500 nM.

As for `Cc1ccc(C(O)(C(N)=O)C(F)(F)F)cc1-c1cnc(N)c(N2CCN3C(=O)CCC3C2)n1` (stereo not shown) [Example 126, 2-(3-(5-amino-6-(6-oxohexahydropyrrolo[1,2-a]pyrazin-2(1H)-yl)pyrazin-2-yl)-4-methylphenyl)-3,3,3-trifluoro-2-hydroxypropanamide trifluoroacetate], the IC50 in assay [2] (setting [5]) was below 100 nM.

Consider `Cc1ccc(C(O)(C(N)=O)C(F)(F)F)cc1-c1cnc(N)c(N2CCN(C(=O)c3ccco3)CC2)n1` (stereo not shown) [Example 127, 2-(3-(5-amino-6-(4-(furan-2-carbonyl)piperazin-1-yl)pyrazin-2-yl)-4-methylphenyl)-3,3,3-trifluoro-2-hydroxypropanamide trifluoroacetate], for which, in assay [2] (setting [6]), the IC50 was below 100 nM.

Take `Cc1ccc(C(O)(C(N)=O)C(F)(F)F)cc1-c1cnc(N)c(N2CCN(c3nccnc3C#N)CC2)n1` (stereo not shown) [Example 128, 2-(3-(5-amino-6-(4-(3-cyanopyrazin-2-yl)piperazin-1-yl)pyrazin-2-yl)-4-methylphenyl)-3,3,3-trifluoro-2-hydroxypropanamide trifluoroacetate]: the IC50 in assay [2] (setting [5]) was below 100 nM.

The IC50 is the concentration that gives 50% inhibition.
